For one assay, the system named is apoptosis in the liver. The assay is described as follows: Liver apoptosis by TUNEL method after burn injury (Example 2). It counts as in vivo, mouse. As to conditions: C57BL mice, 30% TBSA burn, 5 mg/kg daily; days 1, 3, 7, effects most obvious on day 7 post-burn. The method, then: (§1) Systemic inflammatory response syndrome (SIRS) and multiple organ failure (MOF) are leading causes of morbidity and mortality in severe burn patients. In this Example, the effects of the aromatic-cationic peptides of the invention on liver damage in a mouse model of burn injury were examined. Six to eight week old male C57BL mice were subjected to 30% total body surface area (TBSA) burn injury and subsequently injected daily with saline or SS-31 peptide (5 mg/kg body weight). A weight- and time-matched sham-burn group subjected to lukewarm (˜37° C.) water but otherwise treated exactly the same served as controls (FIG. 3). The liver tissues were collected 1, 3, and 7 days after burn injury treatment and used to examine apoptosis by TUNEL method, activated caspase protein levels by Western blots, and caspase activity by an enzymatic reaction assay.

The test system of assay [1] is redox state of the gastrocnemius muscle. The assay is described as follows: Redox state of gastrocnemius muscle by nitroxide EPR after local burn (Examples 4 and 8). It is filed as in vivo, mouse. The conditions noted are these: mice. The method, then: A clinically relevant murine nonlethal local burn injury model was used to address whether aromatic-cationic peptides can prevent/attenuate the adverse effects of burn injury on mitochondrial dysfunction and ER stress. The redox state of the gastrocnemius muscle immediately below a local cutaneous burn (90° for 3 sec) was evaluated by nitroxide EPR.
Next, the effect of SS-31 peptide treatment administered IP 30 min before burn, and immediately after burn (3 mg/kg each dose) was tested.
(§2) Materials and Methods. Male 6-week-old CD1 mice weighing 20-25 g were anesthetized by intraperitoneal (i.p.) injection of 40 mg/kg pentobarbital sodium. The left hind limb of all mice in all groups was shaved. Each burned mouse was subjected to a nonlethal scald injury of 3-5% total body surface area (TBSA) by immersing its left hind limb in 90° C. water for 3 sec.
EPR spectroscopy is described in detail in Khan et al. “Burn Trauma in skeletal muscle results in oxidative stress as assessed by in vivo electron paramagnetic resonance.” Mol Med Reports 1: 813-819 (2008). Briefly, mice were randomized into burn, burn+SS-31 peptide and control groups. The SS-31 peptide (3 mg/kg) was injected intraperitoneally at 0, 3, 6, 24, and 48 hours post-burn. EPR measurements were carried out with a 1.2-GHz EPR spectrometer equipped with a microwave bridge and external loop resonator specially designed for in vive experiments. The optimal spectrometer parameters were: incident microwave power, 10 mW; magnetic field center, 400 gauss; modulation frequency, 27 kHz. The decay kinetics of intravenously-injected nitroxide (150 mg/kg) were measured at the various time points, which indicated the mitochondrial redox status of the muscle.

The subject of the next assay is UCP-1. The assay is described as follows: UCP-1 expression in brown adipose tissue by Western blot (Example 7). It counts as in vivo, rat. As to conditions: rats, III degree 30% TBSA burns; 2 mg/kg priming then 4 mg/kg/day infused 7 days; p=0.057. The method, then: (§3) Methods. Sprague Dawley rats were randomly divided into 5 groups; sham (S), sham with saline treatment (SSal), sham with SS-31 treatment (SPep), burn with saline treatment (BSal) and burn with SS-31 treatment (BPep). In burn group, the back of animal was immersed into 100° C. water for 12 seconds to produce III degree 30% TBSA burns under general anesthesia. Sham burn was produced by immersing the lukewarm water in the same manner. Both groups of animals received 40 ml/kg intraperitoneal saline injection for the resuscitation following the injury. A venous catheter was placed surgically into the right jugular vein subsequent to sham or burn injury. SS-31 (2 mg/kg) or saline was injected as priming, and infused for 7 days (4 mg/kg/day) using osmotic pump (Durect, CA). […] The indirect calorimetry was performed for 24 hours at 6 days after burn injury in a TSE Indirect Calorimetry System (TSE Co. Germany), and VO2, VCO2 and energy expenditure were recorded every six minutes. Interscapullar brown adipose tissue was collected after the indirect calorimetry, and UCP-1 expression in the brown adipose tissue was evaluated by Western blot.
In general terms: In western blotting, separated proteins are transferred to a membrane and probed.

Another assay concerns Sprague-Dawley rats. The assay is described as follows: Wound contraction after burn injury, area of the scab (Example 3). It is filed as in vivo, rat. As to conditions: 65° C. water 25 sec, 1 mg IP one hour prior to burn, 1 mg topical, 1 mg IP every 12 h for 72 h, time points ≧8 days post-burn, p=0.06 by ANOVA. Here is the method:
Sprague-Dawley rats (male, 300-350 g) were pre-treated with 1 mg SS-31 peptide administered IP (this corresponds to about 3 mg/kg) one hour prior to burn (65° C. water for 25 sec on the lower back), followed by topical treatment (1 mg on top of the wound), and 1 mg SS-31 peptide administered IP every 12 h for 72 h. Wounds were observed up to ˜3 weeks post-burn. In general, the wounds took the appearance of a hard scab, and for the purpose of this experiment, the area of the scab was quantified as a measure of wound size. […] Treatment with SS-31 slowed the wound contraction, which indicates the burn injury was less severe compared to burns in animals without the peptide treatment. As such, the aromatic-cationic peptides of the invention are useful in methods of treating wounds associated with a burn injury.

Assay [2] concerns caspase-3. Kind of assay: Liver caspase activity by an enzymatic reaction assay (Example 2). It counts as in vivo, mouse. The conditions noted are these: C57BL mice, 30% TBSA burn, 5 mg/kg daily.
Description: FIG. 6 is a graph showing caspase-3 activity from the various treatment groups of Example 2.
as §1

Assay [3] relates to Sprague Dawley rats. Kind of assay: Indirect calorimetry 6 days after burn injury, 7-day infusion (Example 7). It counts as in vivo, rat. As to conditions: III degree 30% TBSA burns, 2 mg/kg priming then 4 mg/kg/day infused 7 days. The method, then:
as §3

The test system of another assay is protein oxidation. Kind of assay: Liver protein oxidation by western blot (Example 2). It counts as in vivo, mouse. As to conditions: C57BL mice, 30% TBSA burn, 5 mg/kg daily.
Description: FIG. 7 is a photograph of a western blot analysis showing protein oxidation from the various treatment groups of Example 2.
as §1

For assay [4], the system named is ATP synthesis rate (Pi→γATP) in hindlimb skeletal muscle. The assay is described as follows: In vivo 31P-NMR saturation transfer, ATP synthesis rate (Pi→γATP), mouse burn model (Examples 8 and 10). The method, then:
as §2
NMR spectroscopy is described in detail in Padfield, et al., Proc Natl Acad Sci USA 102: 5368-5373 (2005). Briefly, mice were randomized into burn, burn+SS-31 peptide, control, and control+peptide groups. The SS-31 peptide (3 mg/kg) was injected intraperitoneally at 30 min prior to burn and a second injection immediately after the burn. NMR experiments were performed in a horizontal bore magnet (proton frequency 400 MHz, 21 cm diameter, Magnex Scientific) using a Bruker Avance console. A 90° pulse was optimized for detection of phosphorus spectra (repetition time 2 s, 400 averages, 4K data points). Saturation 90°-selective pulse trains (duration 36.534 ms, bandwidth 75 Hz) followed by crushing gradients were used to saturate the γ-ATP peak. The same saturation pulse train was also applied downfield of the inorganic phosphate (Pi) resonance, symmetrically to the γ-ATP resonance. T1 relaxation times of Pi and phosphocreatine (PCr) were measured using an inversion recovery pulse sequence in the presence of γ-ATP saturation. […]
Values are means±SE; ΔM/M0 is the fractional change in Pi magnetization as a result of saturation transfer; T1obs is the observed spin lattice relaxation time of Pi during γATP saturation in seconds; ATP synthesis is calculated as [Pi]×k; [Pi] is the concentration of Pi extrapolated from the baseline NMR spectrum, comparing Pi and γATP peaks and ATP concentration measured with bioluminescence assay; k is calculated as (1/T1obs)×(ΔM/M0); P-values (unpaired Student's t-test) are for comparisons between experimental and control groups; * indicates only one dose of SS-31 peptide (3 mg/kg) was injected to animals immediately after burn.

Assay [5] deals with ATP synthesis rate (reaction PCr → γATP) in hindlimb skeletal muscle. Kind of assay: In vivo 31P-NMR saturation transfer, ATP synthesis rate (reaction PCr→γATP), mouse burn model (Example 8). Here is the method:
as §2
NMR spectroscopy is described in detail in Padfield, et al., Proc Natl Acad Sci USA 102: 5368-5373 (2005). Briefly, mice were randomized into burn, burn+SS-31 peptide, control, and control+peptide groups. The SS-31 peptide (3 mg/kg) was injected intraperitoneally at 30 min prior to burn and a second injection immediately after the burn. NMR experiments were performed in a horizontal bore magnet (proton frequency 400 MHz, 21 cm diameter, Magnex Scientific) using a Bruker Avance console. A 90° pulse was optimized for detection of phosphorus spectra (repetition time 2 s, 400 averages, 4K data points). Saturation 90°-selective pulse trains (duration 36.534 ms, bandwidth 75 Hz) followed by crushing gradients were used to saturate the γ-ATP peak. The same saturation pulse train was also applied downfield of the inorganic phosphate (Pi) resonance, symmetrically to the γ-ATP resonance. T1 relaxation times of Pi and phosphocreatine (PCr) were measured using an inversion recovery pulse sequence in the presence of γ-ATP saturation. An adiabatic pulse (400 scans, sweep with 10 KHz, 4K data) was used to invert Pi and PCr, with an inversion time between 152 ms and 7651 ms.

The next assay concerns mitochondrial aconitase. The assay is described as follows: Mitochondrial aconitase activity in 5% TBSA mice burn model (Example 9). It counts as in vivo, mouse. The conditions noted are these: burned animals. The text has this:
Mitochondrial aconitase is part of the TCA cycle and its activity has been directly correlated with the TCA flux. Moreover, its activity is inhibited by ROS and thus it is considered as an index of oxidative stress. Here we present the local and systematic effects of burn on the mitochondrial aconitase activity using a 5% TBSA mice burn model. The effects of a mitochondrial peptide (SS-31) had been also examined.

Assay [6] concerns caspase-3. The assay is described as follows: Activated caspase protein levels in liver by Western blots (Example 2). The conditions noted are these: C57BL mice, 30% TBSA burn, 5 mg/kg daily; day 3 and 7 post-burn. It is filed as in vivo, mouse. The method, then: as §1
Assay [7] relates to Sprague Dawley rats. Kind of assay: Indirect calorimetry after burn injury in a rat model (Example 1). As to conditions: 30% TBSA full thickness burn, SS-31 2 mg/kg IV q12h for three days, n = 3. It counts as in vivo. The method, then: Sprague Dawley rats were randomized into three groups; sham-burn (SB), burn with saline treatment (B) and burn with peptide treatment (BP). Catheters were surgically placed into jugular vein and carotid artery. B and BP animals received 30% total body surface area full thickness burns by immersing the dorsal part into 100° C. water for 12 seconds with immediate fluid resuscitation. BP animals received IV injection of SS-31 (2 mg/kg every 12 h) for three days (FIG. 1). The EE of the animals were constantly monitored for 12 hours in a TSE Indirect Calorimetry System (TSE Co. Germany).

Setting [8] is: 3-5% TBSA burn, 3 mg/kg IP, 6 h after burn, p<0.05, 3 mg/kg.
The mark [9] stands for this setting: Controls + Peptide (n = 5), unburned CD1 mice, 3 mg/kg IP two injections.

For “D-Arg-2′,6′-dimethyltyrosine-Lys-Phe-NH2 [SS-31]”, in the assay with apoptosis in the liver, the “number of liver cells undergoing apoptosis (TUNEL)” value is listed as “minimized the number of cells undergoing apoptosis”. In addition, the “redox status of burn+peptide group as compared to burn (EPR)” value in [1] (setting [8]) is reported as “significant increase (recovery) in the redox status”. The “redox status of burn+peptide group as compared to control (EPR)” value in assay [1] (setting [8]) is reported as “significant decrease in the redox status”. For the same substance, the “rate of nitroxide reduction in gastrocnemius muscle” value in assay [1] (local burn, 3 mg/kg IP 30 min before burn and immediately after burn, 6 h timepoint) is on record as “significantly increased the rate of nitroxide reduction”. Moreover, the “UCP-1 expression in brown adipose tissue, decrease in BPep group compared to BSal group” value in the assay with UCP-1 was determined as 32%. Also, the “rate of wound contraction (area of the scab)” value with Sprague-Dawley rats is “slower rate of wound contraction”. The results for the “caspase activity in liver” value in the assay with caspase-3 [2] (day 3) and with caspase-3 [2] (post-burn day 7) were “trend for the increased caspase activity following burn injury to reverse” and “reduced the caspase activity to a level that was statistically not different from that of sham control group”, respectively. For the same substance, the “VO2, BPep group compared to BSal group” value in the assay on Sprague Dawley rats [3] (p<0.01) is recorded as “significantly attenuated”. Moreover, the “VCO2, BPep group compared to BSal group” value with Sprague Dawley rats [3] (p<0.05) was “significantly attenuated”. Also, in the assay with Sprague Dawley rats [3] (p<0.05), the “energy expenditure, BPep group compared to BSal group” value is recorded as “significantly attenuated”. Also, in the assay with protein oxidation, the “protein oxidation following burn injury” value is “decreased protein oxidation”. The Pi in [4] (Burn + Peptide (n = 8), 3 mg/kg IP 30 min before burn and immediately after burn, 6 hours after burn) came to 2.93 ± 0.56 µmol/g; in [4] (Burn + Peptide* (n = 8), only one dose 3 mg/kg immediately after burn), 1.41 ± 0.26 µmol/g; in [4] (setting [9]), 5.49 ± 0.28 µmol/g. For the same substance, the PCr in assay [5] (Burn + Peptide (n = 8), 3 mg/kg IP 30 min prior to burn and immediately after the burn) came to 3.25 ± 0.29 µmol/g; in assay [5] (setting [9]) it was 3.76 ± 0.51 µmol/g. Moreover, the “ATP synthesis rate (reaction PCr → γATP)” value in assay [5] (setting [9]) stood at 0.50 ± 0.06 µmol/g/s. The mitochondrial aconitase activity entry in the assay with mitochondrial aconitase is “decreased mitochondrial aconitase activity up to the control levels”. Besides, the “activated form of caspase-3 protein levels in liver” value in the assay with caspase-3 [6] was “reversed the increase in the activated form of caspase-3 protein levels on day 3 and 7 post-burn to the levels similar to those of sham control animals”. In the assay with Sprague Dawley rats [7], this substance yielded an RER of 0.669 ± 0.005.

The values are drawn from US9457057B2, “Methods for the prevention and treatment of burn injuries and secondary complications” (The General Hospital Corporation, priority 2009, dated 2016).
